Laboratory results as given in the NIST ThermoML archive (doi:10.1021/je0504156).

How the values were obtained:
[1] = xn = mol fraction of the nth substance listed; settings: 101 kPa, Liquid
[2] = 101 kPa, Liquid

OCCO [1,2-ethanediol] + Cc1cccc(O)c1
[1], x2 = 0
Settings | mass density [kg/m3] | viscosity [mPa·s]
308.15 K | 1101.88 | 11.19
313.15 K | 1098.33 | 9.444
318.15 K | 1094.75 | 7.972
323.15 K | 1091.16 | 6.794
333.15 K | 1083.94 | 5.065
343.15 K | 1074.53 | 3.879
353.15 K | 1069.72 | 3.058

OCCO [1,2-ethanediol]
[2]
Settings | mass density [kg/m3] | viscosity [mPa·s]
308.15 K | 1101.88 | 11.19
313.15 K | 1098.33 | 9.444
318.15 K | 1094.75 | 7.972
323.15 K | 1091.16 | 6.794
333.15 K | 1083.94 | 5.065
343.15 K | 1074.53 | 3.879
353.15 K | 1069.72 | 3.058

CO [methanol]
[2]
Settings | mass density [kg/m3] | viscosity [mPa·s]
308.15 K | 776.92 | 0.476
313.15 K | 772.13 | 0.445
318.15 K | 767.31 | 0.421
323.15 K | 762.46 | 0.395
328.15 K | 757.85 | 0.372

Cc1cccc(O)c1 [3-methylphenol] + CO
[1]
Settings | mass density, 308.15 K [kg/m3] | mass density, 313.15 K [kg/m3] | mass density, 318.15 K [kg/m3] | mass density, 323.15 K [kg/m3] | mass density, 328.15 K [kg/m3] | viscosity, 308.15 K [mPa·s] | viscosity, 313.15 K [mPa·s] | viscosity, 318.15 K [mPa·s] | viscosity, 323.15 K [mPa·s] | viscosity, 328.15 K [mPa·s]
x1 = 0.0999 | 838.66 | 834.09 | 829.48 | 824.84 | 820.44 | 0.725 | 0.676 | 0.621 | 0.588 | 0.533
x1 = 0.1999 | 880.62 | 876.22 | 871.78 | 867.32 | 863.14 | 0.976 | 0.906 | 0.835 | 0.783 | 0.72
x1 = 0.2998 | 914.11 | 909.92 | 905.55 | 901.14 | 897.17 | 1.319 | 1.205 | 1.1 | 1.011 | 0.933
x1 = 0.3999 | 939.8 | 935.58 | 931.38 | 927.14 | 923.28 | 1.778 | 1.577 | 1.419 | 1.29 | 1.18
x1 = 0.4998 | 960.97 | 956.82 | 952.74 | 948.57 | 944.75 | 2.367 | 2.079 | 1.835 | 1.646 | 1.459
x1 = 0.6001 | 977.35 | 973.31 | 969.31 | 965.28 | 961.59 | 2.958 | 2.556 | 2.243 | 1.99 | 1.788
x1 = 0.6998 | 991.84 | 987.87 | 983.92 | 979.59 | 976.07 | 3.767 | 3.228 | 2.789 | 2.437 | 2.144
x1 = 0.7999 | 1002.99 | 998.97 | 994.93 | 990.88 | 987.18 | 4.783 | 4.007 | 3.418 | 2.936 | 2.551
x1 = 0.8999 | 1013.19 | 1009.18 | 1005.13 | 1001.1 | 997.41 | 6.06 | 4.978 | 4.153 | 3.507 | 2.995
x1 = 1 | 1021.64 | 1017.63 | 1013.6 | 1009.56 | 1005.93 | 7.701 | 6.12 | 5.022 | 4.158 | 3.518

CO [methanol] + Cc1cccc(O)c1
[1], x2 = 0
Settings | mass density [kg/m3] | viscosity [mPa·s]
308.15 K | 776.92 | 0.476
313.15 K | 772.13 | 0.445
318.15 K | 767.31 | 0.421
323.15 K | 762.46 | 0.395
328.15 K | 757.85 | 0.372

Cc1cccc(O)c1 [3-methylphenol]
[2]
Settings | mass density [kg/m3] | viscosity [mPa·s]
308.15 K | 1021.64 | 7.701
313.15 K | 1017.63 | 6.12
318.15 K | 1013.6 | 5.022
323.15 K | 1009.56 | 4.158
328.15 K | 1005.93 | 3.518
333.15 K | 1001.44 | 2.98
343.15 K | 991.33 | 2.231
353.15 K | 985.42 | 1.759
